Active and inactive are the calls of the source.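 Rule for the calls: active = EC50 no more than a set limit of log units above the highest dose; inactive = the rest.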

In this experiment the target is S. pyogenes SKKanGAS, kanamycin survival, BacTiterGlo, 6 h. Kind of experiment: SKKanGAS survival reduction under kanamycin, dose response, streptokinase promoter inhibitor project, SKKanGAS strain, luminescence, dose confirmation (AID 1902).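 Note: lower survival reflects blocked streptokinase promoter driving kanamycin resistance gene.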
As for `O=C(NNC(=O)c1ccccc1OCc1ccccc1Cl)c1csc(N2CCOCC2)n1`, the EC50 is 5.04 µM. For the molecule `CSc1nc2nccc(-c3ccc(-c4ccccc4)cc3)n2n1`, the EC50 was 3.08 µM. Next, `O=c1c2ccccc2nc(COc2ccccc2)n1/N=C/c1cc([N+](=O)[O-])ccc1O`: 1.73 µM; `CC1(C)S[C@@H]2[C@H](NC(=O)COc3ccccc3)C(=O)N2C1C(=O)OCC1CCCCC1` (some centres undefined): 8 µM.

As for `O=C(NC(=S)N(Cc1ccccc1)Cc1ccccc1)c1ccccc1F`, the EC50 was 0.752 µM. Take `CCOC(=O)C1=Nc2ccccc2C1=[N+]=[N-]`: the 50% effective concentration (EC50) is 0.248 µM. The same measure for `Oc1nc(Nc2ccc(Cl)cc2Cl)sc1/C=C1\C=Nc2ccccc21`: 1.76 µM; for `CCn1ccnc1CN1CCc2c([nH]c3ccccc23)C1C1CCCCC1` (centres undefined): 2.02 µM. For `C/C(=N\NC(=O)c1ccc(C)cc1)c1c(C)[nH]n(-c2ccccc2)c1=O`, the half-maximal effective concentration (EC50) is 2.15 µM. Next, `CCCCC(=O)NNC(=S)NC(=O)C(c1ccccc1)c1ccccc1`: 0.188 µM; `O=S(=O)(Nc1c(S(=O)(=O)c2ccccc2)c2nc3ccccc3nc2n1C1CCCCC1)c1ccccc1`: 2.71 µM; `Cc1ccc(NC(=S)N=Nc2c(O)[nH]c3ccccc23)cc1`: 0.631 µM. In the case of `CCC1CCCCN1S(=O)(=O)c1ccc(C(=O)Nc2nnc(C3=COCCO3)o2)cc1` (centres undefined), the half-maximal effective concentration (EC50) is 5.72 µM. As to `CN1CCN(C2=Cc3ccc(Cl)cc3Sc3ccc(F)cc32)CC1`, the EC50 was 4.61 µM. Next, `C=CC1=C(C(=O)O)N2C(=O)C(NC(=O)Cc3ccccc3)C2SC1` (centres undefined): 0.13 µM; `Cc1cc(C)c2nc(NNC(=O)c3ccc(S(=O)(=O)N4CCCCC4)cc3)sc2c1`: 1.86 µM; `Cc1ccc(Nc2nc(N/N=C\c3ccc4c(c3)OCO4)nc(N3CCOCC3)n2)cc1`: 4.5 µM.

For the molecule `Cc1ccc(C(=O)/C=C/C(=O)c2ccc(C)cc2)cc1`, the EC50 was 3.61 µM. On to `C=CCNC(=S)N/N=C(\C)c1ccccn1`, for which the 50% effective concentration (EC50) was 1.76 µM. The same measure for `Cc1ccc(Nc2cc(C)nn2-c2nc(C)cc(=O)[nH]2)cc1`: less than 0.06 µM; for `CCN(CC)CCN(C(=O)CCS(=O)(=O)c1ccccc1)c1nc2cc(C)cc(C)c2s1`: > 15 µM (inactive).

Take `CCOc1ccc(-c2nnc3ccc(SC(C)C)nn23)cc1`: the EC50 is 2.15 µM. Next, `O=C(Nc1cc(Cl)cc(Cl)c1)Nc1cnccn1`: 4.85 µM; `CCCOc1ccc(C(=O)NNC(=S)NC(=O)c2cc(-c3ccc(Cl)cc3)nc3ccccc23)cc1`: less than 0.06 µM; `CCOC(=O)C(C(=O)OCC)c1cc(Br)c2noc3c2c1C(=O)c1ccccc1-3`: 3.7 µM. Next, `CC(C)c1c(C(=O)N/N=C/c2cccc(OCc3ccc(F)cc3)c2)nnn1-c1nonc1N`: 5.19 µM; `Cc1cccc(C(=O)CC(=O)c2cc(Cl)ccc2O)c1`: 1.06 µM. The same measure for `O=C(c1cc(-c2ccccc2)n[nH]1)N1CCc2c([nH]c3ccccc23)C1c1ccccn1` (centres undefined): 5.23 µM; for `O=C(CC1SC(=Nc2ccccc2)N(CCc2c[nH]c3ccccc23)C1=O)Nc1ccccc1F` (centres undefined): 7.21 µM.

Take `Cc1nn2c(NCc3ccccn3)cc(C(C)(C)C)nc2c1-c1ccccc1`: the half-maximal effective concentration (EC50) is 1.54 µM.

As to `CC(C)NC(=O)NC(=O)CSc1nnc(COc2ccccc2F)n1C(C)C1CC2CCC1C2` (centres undefined), the EC50 is 6.58 µM. The same measure for `CC12CCC(C/C1=N\N=C1\NC(=O)/C(=C\c3ccc(Cl)cc3)S1)C2(C)C` (centres undefined): 1.13 µM; for `S=C(NCc1ccco1)N1CCN(c2nc(-c3ccc(Cl)cc3)cs2)CC1`: 9.92 µM; for `CCCCOc1ccc(-c2c(C#N)c(N)nc(SCC(N)=O)c2C#N)cc1`: 4.61 µM. Next, `Cc1nn(-c2ccccc2)c(C)c1/C=N/NC(=O)c1cc(-c2ccc(Br)s2)[nH]n1`: 4.23 µM. Regarding `COc1cc2oc3ccc(C#Cc4ccc(N)cc4)cc3c(=O)c2cc1OC`, the EC50 was 0.799 µM.

`O=C(Nc1cccc(S(=O)(=O)Nc2ccc(Cl)cc2)c1)c1cc2c(s1)CCCC2`: the EC50 was 1.3 µM. Next, `COc1cccc(-c2cc(C(F)(F)F)nc(N3CCCCC3)n2)c1`: 4.86 µM; `O=C(CCC(=O)Nc1cc(C(F)(F)F)ccc1Cl)N/N=C\c1cc([N+](=O)[O-])ccc1O`: 0.658 µM; `Cc1ccc(OCCn2c(NC(=O)c3ccco3)nc3ccccc32)cc1`: 3.58 µM.

On to `Cc1ccc(C)c(CN2CCCN(Cc3cc(C)ccc3C)S2(=O)=O)c1`, for which the EC50 was 2.58 µM. The same measure for `CCc1nc(SCC(=O)N2c3ccccc3CC2C)c2c(C)c(C)sc2n1` (centres undefined): 8.61 µM; for `COc1cc([N+](=O)[O-])cc(/C=N/NC(=O)C(C)Nc2cccc(C)c2)c1O` (centres undefined): 8.83 µM; for `CCn1c(=O)c(C(=O)NNC(=O)c2ccccc2)c(O)c2ccccc21`: 0.839 µM.

On to `O=C(Nc1nccs1)c1sc2ccccc2c1Cl`, for which the EC50 was > 15 µM (inactive).

Consider `Cc1c(N/N=C(\C#N)C(=O)c2ccccc2)c(=O)n(-c2ccccc2)n1C`, for which the half-maximal effective concentration (EC50) is 1.44 µM. The same measure for `COc1cc(/C=C2\SC(=Nc3ccccc3)N(CCc3c[nH]c4ccccc34)C2=O)ccc1OC(C)C(=O)O` (centres undefined): 1.42 µM; for `Cc1ccc(/C=C/C(=O)c2ccccc(=O)c2O)cc1C`: 4.04 µM. For `O=C(CSc1nc(Nc2ccccc2)nc(N2CCOCC2)n1)Nc1cc(Cl)ccc1O`, the EC50 was 4.13 µM.

As to `c1ccc(Nc2nc3ccccc3[nH]2)nc1`, the 50% effective concentration (EC50) is 1.46 µM.

`Cc1ccc(C(NC(=O)NC(C)c2ccccc2)C(Cl)(Cl)Cl)cc1F` (centres undefined): the concentration for a half-maximal effect (EC50) is 6.41 µM. Consider `Cc1cc2nc(N3C(=O)CNC3=S)sc2cc1C`, for which the concentration for a half-maximal effect (EC50) is 2.21 µM. Next, `O=c1[nH]c2ccc(Cl)cc2c(-c2ccccc2)c1N1CCN(c2ccccn2)CC1`: 2.83 µM; `COc1ccc(OC)c(NC(=O)NC2CCCc3ccccc32)c1` (centres undefined): > 15 µM (inactive). `CN1CCN(C2=Cc3cc(Cl)ccc3Sc3cc(F)ccc32)CC1`: the EC50 was 5.16 µM. The same measure for `CCS(=O)(=O)Nc1ccc(-c2cc(-c3ccccc3)c3cc(C)ccc3n2)cc1`: 4.03 µM; for `CCOC(=O)C1=C(C)N=c2s/c(=C\c3ccc(O)c([N+](=O)[O-])c3)c(=O)n2C1c1ccccc1OC` (centres undefined): 6.9 µM. The same measure for `O=C(CNc1ccc2ccccc2c1)N/N=C/c1ccc([N+](=O)[O-])o1`: 14.3 µM. As to `CO/N=C(/C(=O)N[C@@H]1C(=O)N2C(C(=O)O)=CCS[C@H]12)c1cnc(N)s1`, the EC50 was less than 0.06 µM. Next, `Cc1ccc(O)c(/C=N/NC(=O)Cc2ccc(Cl)cc2)c1`: 2.78 µM; `Cc1ccc(-c2nn(-c3ccccc3)cc2/C=N/n2c(-c3cccs3)n[nH]c2=S)cc1`: 1.95 µM. The same measure for `Cn1c(O)c(N=NC(=S)Nc2ccccc2F)c2cc(S(=O)(=O)N3CCOCC3)ccc21`: 5.09 µM. With `Oc1ccc(/C=N/Nc2ccc3ccccc3c2)c(O)c1`, the EC50 was 7.53 µM. The same measure for `CC(=O)NNC(=S)NC(=O)C(c1ccccc1)c1ccccc1`: 0.853 µM; for `CC(=O)Nc1nnc(S(=O)(=O)N2CCN(c3ccc(Cl)cc3[N+](=O)[O-])CC2)s1`: > 15 µM (inactive); for `CCCCC(=O)NC(c1ccco1)c1cc(Cl)c2cccnc2c1O` (centres undefined): 2.03 µM. As for `Cc1ccc(C(=O)NNC(=S)NC(=O)c2ccccc2)cc1`, the EC50 was 0.955 µM. The same measure for `CC(=O)c1cccc(OC(=O)c2ccc3c(=O)n4c(nc3c2)CCC4)c1`: 13.7 µM; for `O=C1[C@H]2C(c3ccccc3)=NN(c3ccccc3)[C@H]2C(=O)N1c1ccccc1`: 0.485 µM. The same measure for `CC(C)Cc1nnc(NC(=O)CCC(=O)N2CCN(c3ccccc3)CC2)s1`: > 15 µM (inactive). The same measure for `O=C(Nc1cccc(Cl)c1N1CCCCC1)c1ccc2c(c1)OCCO2`: 10.5 µM.

Turning to `S=c1[nH]nc(C2CCCCC2)n1/N=C/c1c(Cl)cccc1Cl`, the EC50 was 8.36 µM.

Consider `CC1CCN(c2ccccc2NC(=O)c2ccc(Br)o2)CC1`, for which the EC50 was 5.29 µM. For `COC(=O)C1=NN(C(=O)c2cccc(Br)c2)C(O)(c2ccc(Cl)cc2)C1` (centres undefined), the concentration for a half-maximal effect (EC50) was 1.29 µM. For `Cc1cc(C)c(OCC(=O)Nc2ccccc2N2CCCCC2)c(C)c1`, the concentration for a half-maximal effect (EC50) is 4.38 µM. Next, `COC(=O)c1cc(C(=O)Nc2nc3ccccc3[nH]2)cc([N+](=O)[O-])c1`: 8.85 µM; `O=C(/C=C/c1ccccc1Cl)c1ccccc(=O)c1O`: 0.824 µM; `O=C(NC(=S)Nc1ccc(N2CCOCC2)c(Cl)c1)c1cccs1`: 9.89 µM. The same measure for `CCOC(=O)c1ccc(NC(=O)c2nc(S(=O)(=O)Cc3ccccc3)ncc2Cl)cc1`: 9 µM. Next, `CSCC[C@H](NC(=O)c1nn(C)c(=O)c2ccccc12)c1nc2ccccc2[nH]1`: 2.85 µM; `COc1cc(Br)cc(/C=N/NC(=O)Cc2ccc(C(F)(F)F)cc2[N+](=O)[O-])c1O`: 1.1 µM. `COc1ccc(/C=C/C(=O)NC(=S)NNC(=O)c2ccco2)cc1`: the half-maximal effective concentration (EC50) was 1.67 µM.

Consider `CC(Oc1ccccc1)C(=O)NC1C(=O)N2C1SC(C)(C)C2C(=O)O` (centres undefined), for which the half-maximal effective concentration (EC50) was 0.114 µM. The same measure for `CCOc1ccccc1NC(=O)c1nc(S(=O)(=O)Cc2cccc(C)c2)ncc1Cl`: 11.1 µM; for `Nc1ccc(-c2cn3cccnc3n2)cc1`: > 15 µM (inactive); for `FC(F)(F)c1cccc(Nc2nc(N3CCCC3)nc(N3CCCC3)n2)c1`: 2.23 µM. The same measure for `C[C@]12CC[C@@H]3c4ccc(OC(=O)c5ccccc5)cc4CC[C@H]3[C@@H]1CC[C@@H]2O`: 1.92 µM; for `COc1cc(NC(=O)c2cc3nc(-c4ccccc4)cc(-c4ccccc4)n3n2)cc(OC)c1OC`: 10.1 µM; for `N#Cc1ccccc1CN1C(=O)S/C(=C/c2cccn2-c2ccc(C(=O)O)cc2)C1=O`: 7.03 µM. As to `CC(C)Cc1csc(NC(=O)c2ccc(Br)cc2)c1C(=O)O`, the EC50 is 1.57 µM. Turning to `Cc1nn(-c2ccccc2)c2sc(-c3n[nH]c(=S)o3)cc12`, the EC50 was 3.99 µM. For `Cc1ccc(C(=O)C2=C(O)C(=O)N(Cc3ccco3)C2c2cccc(Br)c2)o1` (centres undefined), the EC50 is 6.67 µM. Next, `O=C(Nc1ccc(Cl)c(Cl)c1)Nc1ccon1`: 14.5 µM; `COC(=O)c1ccc(N2CCC(c3cc(-c4ccc(OC)cc4)n[nH]3)CC2)c([N+](=O)[O-])c1`: 2.15 µM.

Source of the values: PubChem BioAssay AID1902 (Broad Institute, 2009).
